Measurements from the supplement of paper PMC12646585.
± gives the uncertainty stated by the source.

Tested on: TK6
Test: relative viability (MTT, 20-24 h post-exposure) vs solvent control; higher = less cytotoxic
Conditions: exposure time: 4 h (S9 compounds: 3 h + 4 h recovery)
Procedure: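 Human TK6 lymphoblastoid cells were exposed for 4 h to three concentrations of each compound at four ring-trial labs. Compounds P, Q, R and CC were given for 3 h with rat liver S9 plus 4 h recovery. Relative survival was measured by MTT assay 20-24 h after exposure, as % viability relative to solvent control (mean with SD), in the Result 1 round with preselected concentrations.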

C[C@@H]1C[C@@H]([C@H](O)CC2CC(=O)NC(=O)C2)C(=O)[C@@H](C)C1 [Cycloheximide]
relative viability [%]
Conditions | batch: 1, lab: Lab 1 | batch: 1, lab: Lab 2 | batch: 1, lab: Lab 3 | batch: 1, lab: Lab 4
concentration: 1.11uM | 89.7 ± 6.7 | 85.7 ± 4.6 | 94.1 ± 0.6 | 86.8 ± 5.5
concentration: 3.33uM | 64 ± 7.6 | 65.6 ± 6.2 | 72.2 ± 7.4 | 69.7 ± 4.6
concentration: 10uM | 49.4 ± 6.1 | 46.1 ± 4.8 | 41.3 ± 2.9 | 57.4 ± 5.4

CCN(CC)CCNC(=O)c1c(C)[nH]c(/C=C2\C(=O)Nc3ccc(F)cc32)c1C.O=C(O)C[C@H](O)C(=O)O [Sunitinib malate]
relative viability [%]
Conditions | batch: 2, lab: Lab 1 | batch: 2, lab: Lab 2 | batch: 2, lab: Lab 3 | batch: 2, lab: Lab 4
concentration: 2.22uM | 103 ± 3 | 77.8 ± 4.1 | 91.3 ± 1.2 | 99.4 ± 4.7
concentration: 6.67uM | 90.4 ± 3.5 | 64.7 ± 5.2 | 69 ± 1.6 | 86.4 ± 10
concentration: 20uM | 64.6 ± 2 | 28.5 ± 4.9 | 37 ± 1.1 | 40.8 ± 3.6

CCN(N=O)C(N)=O [ENU (N-Nitroso-N-ethylurea)]
relative viability [%]
Conditions | batch: 2, lab: Lab 1 | batch: 2, lab: Lab 2 | batch: 2, lab: Lab 3 | batch: 2, lab: Lab 4
concentration: 0.056mM | 97.9 ± 10 | 87.58 ± 0.76 | 99.1 ± 3 | 101 ± 11
concentration: 0.167mM | 92.2 ± 6.8 | 104 ± 2.7 | 93.5 ± 2.3 | 89.3 ± 6.6
concentration: 0.5mM | 70.5 ± 4.1 | 95.6 ± 1.1 | 69.3 ± 3.2 | 76.1 ± 8.3

Cc1c(N)nc(C(CC(N)=O)NCC(N)C(N)=O)nc1C(=O)NC(C(=O)NC(C)C(O)C(C)C(=O)NC(C(=O)NCCc1nc(-c2nc(C(=O)NCCC[S+](C)C)cs2)cs1)C(C)O)C(O[C@@H]1O[C@@H](CO)[C@@H](O)[C@H](O)[C@@H]1O[C@H]1O[C@H](CO)[C@@H](O)[C@H](OC(N)=O)[C@@H]1O)c1cnc[nH]1.O=S(=O)([O-])O (some centres undefined) [Bleomycin (sulfate)]
Conditions | relative viability [%]
concentration: 5ug/mL, batch: 2, lab: Lab 1 | 80.5 ± 4.2
concentration: 5ug/mL, batch: 2, lab: Lab 2 | 53.4 ± 7.1
concentration: 5ug/mL, batch: 2, lab: Lab 3 | 51 ± 6.2
concentration: 5ug/mL, batch: 2, lab: Lab 4 | 56.4 ± 1.8
concentration: 5ug/mL, batch: 3, lab: Lab 1 | 78 ± 4
concentration: 5ug/mL, batch: 3, lab: Lab 2 | 66 ± 7.1
concentration: 5ug/mL, batch: 3, lab: Lab 3 | 49.7 ± 3.8
concentration: 5ug/mL, batch: 3, lab: Lab 4 | 54.6 ± 2.8
concentration: 10ug/mL, batch: 1, lab: Lab 1 | 41.8 ± 3.7
concentration: 10ug/mL, batch: 1, lab: Lab 2 | 59.6 ± 4.6
concentration: 10ug/mL, batch: 1, lab: Lab 3 | 53 ± 3.7
concentration: 10ug/mL, batch: 1, lab: Lab 4 | 50.6 ± 1.6

Nc1ccc2cc3ccccc3cc2c1 [2-Aminoanthracene]
relative viability [%]
Conditions | batch: 4, lab: Lab 1 | batch: 4, lab: Lab 2 | batch: 4, lab: Lab 3 | batch: 4, lab: Lab 4
concentration: 0.22ug/mL | 95.8 ± 6.6 | 97.3 ± 23 | 102 ± 11 | 96.3 ± 3
concentration: 0.67ug/mL | 94.8 ± 3.9 | 87.8 ± 18 | 95.5 ± 8.5 | 93.5 ± 2.5
concentration: 2ug/mL | 47 ± 5.6 | 16.8 ± 1.3 | 23.1 ± 0.8 | 9.75 ± 11

O.O=P1(N(CCCl)CCCl)NCCCO1 (centres undefined) [Cyclophosphamide]
relative viability [%]
Conditions | batch: 4, lab: Lab 1 | batch: 4, lab: Lab 2 | batch: 4, lab: Lab 3 | batch: 4, lab: Lab 4
concentration: 2.22uM | 103 ± 4 | 94.2 ± 9.3 | 157 ± 11 | 80.3 ± 3.9
concentration: 6.67uM | 96.49 ± 0.35 | 69 ± 2.4 | 107 ± 14 | 81.7 ± 1.3
concentration: 20uM | 90.45 ± 0.81 | 47.2 ± 2.1 | 73.4 ± 3.3 | 58.4 ± 3.7

O=[N+]([O-])c1ccc(O)c([N+](=O)[O-])c1 [2,4-Dinitrophenol]
relative viability [%]
Conditions | batch: 3, lab: Lab 1 | batch: 3, lab: Lab 2 | batch: 3, lab: Lab 3 | batch: 3, lab: Lab 4
concentration: 0.11mM | 92.2 ± 1.2 | 98.2 ± 5 | 71.1 ± 14 | 97.7 ± 3.1
concentration: 0.33mM | 84.7 ± 2.5 | 85 ± 2.5 | 67.4 ± 1.1 | 98.6 ± 8.2
concentration: 1mM | 58.6 ± 2.2 | 37.2 ± 10 | 63.9 ± 1.4 | 99.4 ± 6.2

CCC1(c2ccccc2)C(=O)N=C([O-])NC1=O.[Na+] (centres undefined) [Phenobarbital sodium]
relative viability [%]
Conditions | batch: 4, lab: Lab 1 | batch: 4, lab: Lab 2 | batch: 4, lab: Lab 3 | batch: 4, lab: Lab 4
concentration: 0.11mM | 98.3 ± 4.8 | 85.5 ± 11 | 149 ± 13 | 95.2 ± 10
concentration: 0.33mM | 95.6 ± 4.8 | 84.2 ± 10 | 119 ± 15 | 96.8 ± 6.2
concentration: 1mM | 95.7 ± 3.7 | 82.3 ± 8.5 | 116 ± 7.6 | 99.5 ± 8.9

CN[C@@H]1C[C@H]2O[C@@](C)([C@@H]1OC)n1c3ccccc3c3c4c(c5c6ccccc6n2c5c31)C(=O)NC4 [Staurosporine]
relative viability [%]
Conditions | batch: 3, lab: Lab 1 | batch: 3, lab: Lab 2 | batch: 3, lab: Lab 3 | batch: 3, lab: Lab 4
concentration: 3nm | 104 ± 3.9 | 114 ± 16 | 130 ± 7.6 | 97.4 ± 3.9
concentration: 10nm | 103 ± 4.5 | 99.1 ± 2.1 | 111 ± 5.5 | 91.4 ± 14
concentration: 30nm | 97 ± 2.9 | 69.7 ± 3.1 | 69.7 ± 4.3 | 73.9 ± 7.5

C[C@@H]1C[C@H]2[C@@H]3CCC4=CC(=O)C=C[C@]4(C)[C@@]3(F)[C@@H](O)C[C@]2(C)[C@@]1(O)C(=O)CO [Dexamethasone]
relative viability [%]
Conditions | batch: 3, lab: Lab 1 | batch: 3, lab: Lab 2 | batch: 3, lab: Lab 3 | batch: 3, lab: Lab 4
concentration: 0.11mM | 105 ± 6 | 103 ± 13 | 127 ± 13 | 112 ± 7.9
concentration: 0.33mM | 101 ± 3.8 | 97.9 ± 5.6 | 142 ± 4.4 | 111 ± 12
concentration: 1mM | 86.6 ± 7.7 | 86.4 ± 5.5 | 143 ± 5.6 | 92.2 ± 12

CC1(C)S[C@@H]2[C@H](NC(=O)[C@H](N)c3ccccc3)C(=O)N2[C@H]1C(=O)O [Ampicillin]
relative viability [%]
Conditions | batch: 1, lab: Lab 1 | batch: 1, lab: Lab 2 | batch: 1, lab: Lab 3 | batch: 1, lab: Lab 4
concentration: 0.11mM | 102 ± 5.6 | 104 ± 3 | 115 ± 6.7 | 127 ± 17
concentration: 0.33mM | 94.9 ± 3.7 | 115 ± 8.7 | 123 ± 5.7 | 126 ± 9.4
concentration: 1mM | 99.9 ± 6.3 | 98.3 ± 12 | 121 ± 3.4 | 112 ± 9.2

CCOS(C)(=O)=O [EMS (Ethyl methanesulfonate)]
relative viability [%]
Conditions | batch: 2, lab: Lab 1 | batch: 2, lab: Lab 2 | batch: 2, lab: Lab 3 | batch: 2, lab: Lab 4
concentration: 0.22mM | 95.4 ± 3.9 | 105 ± 6.5 | 98.2 ± 3.5 | 103 ± 7.2
concentration: 0.67mM | 91.7 ± 3 | 98.1 ± 5.8 | 96.6 ± 2.6 | 92.6 ± 6.2
concentration: 2mM | 85.2 ± 3.3 | 84.6 ± 2.8 | 67.7 ± 1.2 | 80.4 ± 3.7

O=C(O)CCCc1ccc(N(CCCl)CCCl)cc1 [Chlorambucil]
relative viability [%]
Conditions | batch: 3, lab: Lab 1 | batch: 3, lab: Lab 2 | batch: 3, lab: Lab 3 | batch: 3, lab: Lab 4
concentration: 0.44uM | 95.2 ± 3.8 | 84.9 ± 7.7 | 80.8 ± 2.1 | 97.2 ± 12
concentration: 1.33uM | 89.6 ± 3.8 | 95.9 ± 17 | 74.1 ± 1.5 | 92.3 ± 14
concentration: 4uM | 78.9 ± 3.7 | 71.7 ± 8.3 | 67.2 ± 0.8 | 75.3 ± 14

Cn1c(=O)c2c(ncn2C)n(C)c1=O [Caffeine]
concentration: 2mM
Conditions | relative viability [%]
batch: 1, lab: Lab 1 | 94.7 ± 2.1
batch: 1, lab: Lab 2 | 86.4 ± 4
batch: 1, lab: Lab 3 | 108 ± 4.5
batch: 1, lab: Lab 4 | 98.2 ± 4.2
batch: 2, lab: Lab 1 | 96.7 ± 1
batch: 2, lab: Lab 2 | 80.1 ± 13
batch: 2, lab: Lab 3 | 88.9 ± 6.5
batch: 2, lab: Lab 4 | 100 ± 7
batch: 3, lab: Lab 1 | 96.4 ± 2.7
batch: 3, lab: Lab 2 | 92.5 ± 5.4
batch: 3, lab: Lab 3 | 107 ± 2.4
batch: 3, lab: Lab 4 | 92.6 ± 11

c1ccc2c(c1)cc1ccc3cccc4ccc2c1c34 [Benzo[a]pyrene]
concentration: 10ug/mL
Conditions | relative viability [%]
batch: 4, lab: Lab 1 | 67.8 ± 2.3
batch: 4, lab: Lab 2 | 35.7 ± 2
batch: 4, lab: Lab 3 | 66.3 ± 0.7
batch: 4, lab: Lab 4 | 75 ± 5.3

OC[C@@H](O)[C@@H](O)[C@H](O)[C@H](O)CO [D-Mannitol]
relative viability [%]
Conditions | batch: 1, lab: Lab 1 | batch: 1, lab: Lab 2 | batch: 1, lab: Lab 3 | batch: 1, lab: Lab 4
concentration: 0.11mM | 90 ± 3.8 | 97 ± 6.5 | 145 ± 3.4 | 110 ± 6.5
concentration: 0.33mM | 98.7 ± 5.1 | 104 ± 14 | 137 ± 5.8 | 107 ± 5.4
concentration: 1mM | 103 ± 9.3 | 104 ± 12 | 139.3 ± 1 | 107 ± 5
